Test results: paper PMC8856110, “Comparative chemical and biological hydrolytic stability of homologous esters and isosteres” (Journal of Enzyme Inhibition and Medicinal Chemistry, 2022)
Read-outs that look alike come from different tables or passages of the source.

How the values were obtained:
[1] = Rat plasma hydrolytic study; details: for half-life at 500 μM: male, Wistar, rat, rat plasma (80% in phosphate buffer), pH 7.4
Protocol: (§1) Rat plasma was obtained from male Wistar rats’ blood and diluted in phosphate buffer (pH 7.4) to obtain a final plasma concentration of 80%. […] The sample was incubated at 37 °C for 5, 10, 20, and 30 min, under stirring. At the end of the incubation time, the reaction was stopped by adding methanol (500 μL) and acetonitrile (500 μL), both in ice-cold temperature. The mixture was centrifuged at 13.500 rpm for 15 min at 4 °C. The organic phase was transferred to a microtube, and the IS (1.25 µL) was added. Finally, the samples were filtered through PVDF syringe filters (Millex®: 0.22 µm pore size) and analysed by HPLC[16].
(§2) A Shimadzu Prominence HPLC system (Shimadzu, Tokyo, Japan) consisting of a UV/VIS Photodiode Array Detector (SPD-M20A), a binary pump (LC-20AD), a vacuum degasser (DGU-20A5), and an autosampler (SIL-20A) was used for analyses. The Chromatographic separation was achieved using a reversed phase (Kromasil® C18 HPLC Column: particle size 5 µm, L × I.D. 250 × 4.6 mm) preceded by a guard column (Phenomenex® C18: 4 × 3 mm). The column was held at ambient temperature (22 ± 2 °C). For the selection of the wavelength, the diode array-detector was used. To avoid interference with impurities, the longest suitable wavelength was chosen to evaluate the chromatograms, which allowed for sensitivity. The mobile phase was a combination of eluent A (0.1% formic acid) and eluent B (acetonitrile). Three mobile phases were carried out using an injection volume of 20 µL and an flow rate set at 1.0 ml/min. […] A:B 40:60 v/v. […] A:B 90:10 v/v; 4–8 min. linear-gradient from 90% A to A:B 60:40 v/v; 8–12 min. A:B 60:40 v/v.
(§3) The biologic hydrolysis of the esters 1–12 was carried out using rat plasma and rat liver microsomes. Each compound's half-life (t1/2) was calculated using the expression t1/2 = 0.693/a, as previously described.

[2] = Hydrolytic study using rat liver microsomes; assay type: in vitro ADME; details: male, Wistar, 1 mg/mL microsomal fraction, absence of cofactor, 37 °C, read-out: Hydrolysis t1/2 Rat liver microsomes
Protocol: Rat liver microsomes were obtained from male Wistar rats (280–330 g) and prepared according to the methodology described by Cabrera and co-workers[17]. After obtaining rat liver microsomes, the protein quantification was done by a bicinchoninic acid assay using a commercial protein determination kit obtained from Sigma-Aldrich (St Louis MO, USA)[18]. […] The reaction was stopped by adding organic solvents at ice-cold temperature (i.e., 500 µL of methanol and 500 µL of acetonitrile).
(ii) Compounds 8–9: 0–15 min. A:B 40:60 v/v. (iii) Compounds 13–16: 0–4 min. […] A:B 60:40 v/v.
Given those results, we decided to study the comparative metabolic behaviour of the esters 1 and 2, 5 and 6, 11 and 12, using another biological matrix rich in carboxylesterases. Therefore, the kinetics of hydrolysis was established using rat liver microsomes in the absence of cofactor in order to prevent eventual oxidative metabolic reactions catalysed by CYP450 or FMO.

[3] = Base-catalysed (alkaline) hydrolysis with LiOH in THF:H2O; details: for half-life at 2.5 g/L: LiOH in tetrahydrofuran/water (6:4)
Protocol: (§4) The reaction was started by adding LiOH (24 μL, 1 mol/l), and the mixture was incubated at 37 °C for 5, 10, 20, and 30 min, under stirring in a water bath. At the end of the incubation period, an aliquot (20 μL) was transferred to a new tube, and subsequently, HCl (0.3 μL, 10% v:v) was added. The pH of the sample was checked to verify neutralisation, and acetonitrile (480 μL) was added. The final concentrations of all compounds in the solution were 2,5 g/L. Finally, the samples were filtered through PVDF syringe filters (Millex®: 0.22 µm pore size) and analysed by HPLC[15].
as §2
(§5) The time in minutes required to reduce half the initial amount of each ester compound (i.e., half-life - t1/2) was calculated using the expression t1/2 = 0.693/a, with "a" being the slope of the natural log of concentration of the sample vs. the incubation time.

carboxylesterase (CES) = test: Enzymatic inhibition study in rat plasma with CES inhibitor bis(p-nitrophenyl)phosphate; assay type: in vitro ADME; details: bis(p-nitrophenyl)phosphate 1, 10, 100 µM; ester 500 µM, 90 min
Protocol: The inhibitor was pre-incubated for 30 min at 37 °C, with (i) plasma (ii) rat liver microsomes and phosphate buffer pH 7,4 (final volume of 250 µL). […] The mixture was incubated again at 37 °C for 90 min under agitation. The analysis was performed by the same HPLC method used in the previous experiments. […] Data were expressed as percentages of inhibition.

[4] = pH 7.4
Protocol: as §1, §2, §3

[5] = buffer
Protocol: as §4, §2, §5

[6] = Hydrolysis t1/2 Alkaline, LiOH, THF:H2O, 37 °C

Compound	half-life at 500 μM [1] [min]	half-life [2] [min]	half-life at 2.5 g/L [3] [min]	further results
COC(=O)c1ccccc1 [Compound 1, methyl benzoate]	36	15	14	–
CCOC(=O)c1ccccc1 [Compound 2, ethyl benzoate]	17	12	–	Metabolism in rat plasma in the presence of the CES inhibitor (carboxylesterase (CES)): strongly reduced; half-life at 2.5 g/L [3, 6]: 15 min; Hydrolysis t1/2 Alkaline ([3]; LiOH, THF:H2O, 37 °C): 14 min
CCCOC(=O)c1ccccc1 [Compound 3, n-propyl benzoate]	10	–	19	–
CCCCOC(=O)c1ccccc1 [Compound 4, n-butyl benzoate]	10	–	21	–
O=C(Oc1ccccc1)c1ccccc1 [Compound 5, phenyl benzoate]	7	10	11	–
O=C(OCc1ccccc1)c1ccccc1 [Compound 6, benzyl benzoate]	12	13	16	–
COC(=O)Cc1ccccc1 [Compound 8, methyl 2-phenylacetate]	3	–	–	Loss of plasma metabolic stability relative to ester 1 ([1]; rat plasma, versus ester 1): twelve times less stable; half-life at 2.5 g/L [3, 6]: 39 min
CC(=O)Oc1ccccc1 [Compound 9]	19	–	–	half-life at 2.5 g/L [3, 6]: 58 min
CCOC(=O)c1ccccc1Br [Compound 10, ethyl 2-bromobenzoate]	10	–	15	–
CCOC(=O)c1cccc(Br)c1 [Compound 11, ethyl 3-bromobenzoate]	11	12	25	–
CCOC(=O)c1ccc(Br)cc1 [Compound 12, ethyl 4-bromobenzoate]	12	10	12	–
CCOC(=O)c1ccc(N)cc1 [Compound 13, ethyl 4-aminobenzoate, reference compound]	13	–	–	–
COC(=O)c1ccc(N)cc1 [Compound 14, methyl 4-aminobenzoate]	27	–	–	–
CCOC(=O)c1ncn2c1CN(C)C(=O)c1cc(F)ccc1-2 [Compound 15, flumazenil, reference compound]	89	–	–	Times less stable to plasma hydrolysis than methyl homologous 16 ([1]; rat plasma, versus 16): 2.7 times
COC(=O)c1ncn2c1CN(C)C(=O)c1cc(F)ccc1-2 [Compound 16, methyl 8-fluoro-5-methyl-6-oxo-4H-imidazo[1,5-a][1,4]benzodiazepine-3-carboxylate]	238	–	–	–
methyl 2-naphthoate [Compound 7]	–	–	–	Hydrolysis t1/2 Rat plasma [4]: 17 min; Hydrolysis t1/2 Alkaline [5]: 29 min
